Data reported in US20150150246A1, “USE OF INSECT GROWTH REGULATORS IN COCKROACH CONTROL” (MCLAUGHLIN GORMLEY KING COMPANY, priority 2013, published 2015).
Like-named read-outs stand apart in the source and are kept apart here.

Experiments:
German cockroach males = details: cited from earlier work
German cockroaches [1] = experiment: Reproductive inhibition by harborages contaminated with pyriproxyfen-containing fecal pellets (secondary exposure); format: in vivo, German cockroach
German cockroaches [2] = details: male, German cockroach, in vivo, po
Experimental: Adult male German cockroaches were obtained directly from German cockroach colonies maintained in the laboratory after a brief exposure to CO2 to facilitate handling. Cohorts of similar age (˜11 weeks old), adult male cockroaches (˜300 individuals) were randomly selected and moved into holding containers (Lock&Lock containers, Lock&Lock Co. Ltd., Dallas, Tex., USA) using a pair of soft tissue forceps. Cockroaches were starved in holding containers for 48 hours. Following starvation, cockroaches were transferred into the fecal collection apparatus. The fecal collection apparatus consisted of two vertically connected holding containers (Lock&Lock Co. Ltd., Dallas, Tex., USA) separated by a mesh screen. Cockroaches were introduced into the upper compartment of the collection apparatus and fecal pellets were collected from the floor of the lower container. The floor of the lower container was sealed with aluminum foil to facilitate the removal of fecal pellets. […] Fecal pellets were collected weekly until a sufficient amount of faeces was obtained to achieve analytical quantification. Quantification of pyriproxyfen was made by standard high-performance liquid chromatography-mass spectrometry (HPLC-MS) developed for pyriproxyfen. […]

cockroaches = experiment: Efficacy of bait at different pyriproxyfen concentrations; details: in vivo
Experimental: In one embodiment, the bait comprises abamectin at 0.05% and pyriproxyfen at 0.5% by weight. Efficacy was observed from 0.05 to 1.0% of pyriproxyfen. No higher doses were tested due to physical changes to the matrix, but higher amounts could be used by modifying the matrix. Pyriproxyfen is non-repellent so biologically 1.0% is not an absolute upper concentration limit.

**Q.** For `N#Cc1nn(-c2c(Cl)cc(C(F)(F)F)cc2Cl)c(N)c1[S+]([O-])C(F)(F)F` (stereo not drawn) [fipronil], which “mortality of German cockroach males” value (German cockroach males; 24-hour post-bait introduction, laboratory studies) is on record?
**A.** Its value is 100%.

**Q.** For `CC(COc1ccc(Oc2ccccc2)cc1)Oc1ccccn1` (stereo not drawn) [pyriproxyfen], which “suppression of the reproductive output of exposed cockroaches” value (German cockroaches [1]; consumption of pyriproxyfen contaminated frass (secondary exposure)) is on record?
**A.** Its value is 100%.

**Q.** And the “suppression of reproductive maturation” value (German cockroaches [1]; fecal pellets deposited following consumption of pyriproxyfen)?
**A.** The value was 100%.

**Q.** And the “portion of ingested pyriproxyfen present in the frass” value (German cockroaches [2])?
**A.** Its value is ~60%.

**Q.** What about the repellency (cockroaches) of the same compound?
**A.** The repellency was “non-repellent”.

**Q.** For abamectin, which “mortality of German cockroach males” value (German cockroach males; in 5 days, same conditions) is on record?
**A.** The value was 100%.
